Laboratory results published in patent US10501421B1, “Substituted benzimidazoles as modulators of Ras signaling” (VANDERBILT UNIVERSITY, priority 2017, dated 2019).
Structures can show the parent of a compound that is named as a salt.

What was measured:
[1] = target: Ras GEF SOS (Son of Sevenless) (Homo sapiens, UniProt Q07889); assay: SOS-mediated nucleotide exchange on Ras (BODIPY-GDP fluorescence); format: biochemical; settings: SOS-mediated exchange of BODIPY-GDP for GTP on Ras
Outline: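 Ras loaded with BODIPY-GDP was mixed in buffer with test compound, then GTP and SOS. Fluorescence change from labeled GDP/GTP exchange was followed over time, and rates came from single-exponential fits. EC50 came from a four-parameter fit of mean rate against compound concentration.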

Son of Sevenless (SOS) = target: T1, Son of Sevenless (SOS) (Homo sapiens, UniProt Q07889); assay: Binding to SOS, fluorescence polarization anisotropy (FPA) probe displacement; settings: displacement of FITC-conjugated probe (Example 285), affinity calculated from IC50
T1 sequence (Q07889 564-1049 limits assumed): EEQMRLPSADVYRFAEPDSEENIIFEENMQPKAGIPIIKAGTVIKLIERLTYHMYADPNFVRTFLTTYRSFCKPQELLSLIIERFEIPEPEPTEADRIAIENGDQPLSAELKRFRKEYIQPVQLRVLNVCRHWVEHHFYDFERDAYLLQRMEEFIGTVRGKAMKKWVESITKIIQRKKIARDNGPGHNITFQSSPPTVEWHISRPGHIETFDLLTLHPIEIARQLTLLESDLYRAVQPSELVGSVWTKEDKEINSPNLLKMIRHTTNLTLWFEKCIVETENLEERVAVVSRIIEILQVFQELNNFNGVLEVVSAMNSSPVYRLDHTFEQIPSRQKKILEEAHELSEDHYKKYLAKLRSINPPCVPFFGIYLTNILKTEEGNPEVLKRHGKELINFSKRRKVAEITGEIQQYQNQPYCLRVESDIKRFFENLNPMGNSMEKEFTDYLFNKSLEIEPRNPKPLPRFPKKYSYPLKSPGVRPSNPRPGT
Outline: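 A FITC-conjugated probe compound was incubated with SOS in buffer, and its displacement was tracked as a change in fluorescence anisotropy across a test-compound dose range. IC50 came from a four-parameter variable-slope fit, and binding affinity was calculated from it.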

Chain of Ras GEF SOS (Son of Sevenless) (P01112 1-166 partner limits assumed, one chain of several): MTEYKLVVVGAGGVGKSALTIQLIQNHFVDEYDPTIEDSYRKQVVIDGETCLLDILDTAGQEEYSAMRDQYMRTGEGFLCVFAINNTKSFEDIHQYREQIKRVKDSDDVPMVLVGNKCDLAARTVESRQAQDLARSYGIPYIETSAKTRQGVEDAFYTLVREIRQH

`CCC[C@H](N)c1cccc2c1nc(N1CCNCC1)n2Cc1ccc(F)c(Cl)c1` [Example 165, (S)-1-(1-(3-chloro-4-fluorobenzyl)-2-(piperazin-1-yl)-1H-benzo[d]imidazol-4-yl)butan-1-amine trifluoroacetate] showed an EC50 [1] of 1000 to 5000 nM and a Ki (Son of Sevenless (SOS)) of 1000 to 5000 nM.
`N[C@H](c1cc(Cl)cc2c1nc(N1CCNCC1)n2Cc1ccc(F)c(Cl)c1)C1CC1` [Example 167, (S)-(6-chloro-1-(3-chloro-4-fluorobenzyl)-2-(piperazin-1-yl)-1H-benzo[d]imidazol-4-yl)(cyclopropyl)methanamine trifluoroacetate] was tested, and the EC50 [1] was < 1000 nM and the Ki (Son of Sevenless (SOS)) was 500 to 1000 nM.
Compound `COc1ccc(-n2nccc2-c2cc(Cl)cc3c2nc(N2CCNCC2)n3Cc2ccc(F)c(Cl)c2)cc1` [Example 168, 6-chloro-1-(3-chloro-4-fluorobenzyl)-4-(1-(4-methoxyphenyl)-1H-pyrazol-5-yl)-2-(piperazin-1-yl)-1H-benzo[d]imidazole trifluoroacetate] has an EC50 [1] of 1000 to 5000 nM and a Ki (Son of Sevenless (SOS)) of 500 to 1000 nM.
With `CC(C)c1ccc(-n2nccc2-c2cc(Cl)cc3c2nc(N2CCNCC2)n3Cc2ccc(F)c(Cl)c2)cc1` [Example 169, 6-chloro-1-(3-chloro-4-fluorobenzyl)-4-(1-(4-isopropylphenyl)-1H-pyrazol-5-yl)-2-(piperazin-1-yl)-1H-benzo[d]imidazole trifluoroacetate] the EC50 [1] was 1000 to 5000 nM and the Ki (Son of Sevenless (SOS)) was > 5000 nM.
In the case of `Cc1cc2c(nc(N3CCNCC3)n2Cc2ccc(F)c(Cl)c2)c(-c2ccnn2-c2ccccc2)c1C` [Example 171, 1-(3-chloro-4-fluorobenzyl)-5,6-dimethyl-4-(1-phenyl-1H-pyrazol-5-yl)-2-(piperazin-1-yl)-1H-benzo[d]imidazole trifluoroacetate], the EC50 [1] is reported as 1000 to 5000 nM and the Ki (Son of Sevenless (SOS)) is reported as 1000 to 5000 nM.
`Cc1cc2c(nc(N3CCNCC3)n2Cc2ccc(F)c(Cl)c2)c(-c2ccnn2-c2ccc(Br)cc2)c1C` [Example 172, 4-(1-(4-bromophenyl)-1H-pyrazol-5-yl)-1-(3-chloro-4-fluorobenzyl)-5,6-dimethyl-2-(piperazin-1-yl)-1H-benzo[d]imidazole trifluoroacetate] was tested, and the EC50 [1] was 1000 to 5000 nM and the Ki (Son of Sevenless (SOS)) was 1000 to 5000 nM.
With `Cc1cc2c(nc(N3CCNCC3)n2Cc2ccc(F)c(Cl)c2)c(-c2ccnn2-c2ccc(C(C)C)cc2)c1C` [Example 173, 1-(3-chloro-4-fluorobenzyl)-4-(1-(4-isopropylphenyl)-1H-pyrazol-5-yl)-5,6-dimethyl-2-(piperazin-1-yl)-1H-benzo[d]imidazole trifluoroacetate] the EC50 [1] was 5000 to 30000 nM and the Ki (Son of Sevenless (SOS)) was > 5000 nM.
For `CC(C)Cn1nccc1-c1cc(Cl)cc2c1nc(N1CCNCC1)n2Cc1ccc(F)c(Cl)c1` [Example 174, 6-chloro-1-(3-chloro-4-fluorobenzyl)-4-(1-isobutyl-1H-pyrazol-5-yl)-2-(piperazin-1-yl)-1H-benzo[d]imidazole trifluoroacetate], the EC50 [1] was 1000 to 5000 nM and the Ki (Son of Sevenless (SOS)) was < 500 nM.
With `CN(C)CCn1nccc1-c1cc(Cl)cc2c1nc(N1CCNCC1)n2Cc1ccc(F)c(Cl)c1` [Example 175, 2-(5-(6-chloro-1-(3-chloro-4-fluorobenzyl)-2-(piperazin-1-yl)-1H-benzo[d]imidazol-4-yl)-1H-pyrazol-1-yl)-N,N-dimethylethan-1-amine trifluoroacetate] the EC50 [1] was < 1000 nM and the Ki (Son of Sevenless (SOS)) was 500 to 1000 nM.
In the case of `CC(C)n1nccc1-c1cc(Cl)cc2c1nc(N1CCNCC1)n2Cc1ccc(F)c(Cl)c1` [Example 176, 6-chloro-1-(3-chloro-4-fluorobenzyl)-4-(1-isopropyl-1H-pyrazol-5-yl)-2-(piperazin-1-yl)-1H-benzo[d]imidazole trifluoroacetate], the EC50 [1] is reported as 1000 to 5000 nM and the Ki (Son of Sevenless (SOS)) is reported as < 500 nM.
`Cc1cc(Cn2c(N3CCNCC3)nc3c(-c4ccnn4-c4cccc5ccccc45)cc(Cl)cc32)cc(C)c1F` [Example 177, 6-chloro-1-(4-fluoro-3,5-dimethylbenzyl)-4-(1-(naphthalen-1-yl)-1H-pyrazol-5-yl)-2-(piperazin-1-yl)-1H-benzo[d]imidazole trifluoroacetate] showed an EC50 [1] of 30000 to 100000 nM and a Ki (Son of Sevenless (SOS)) of 1000 to 5000 nM.
With `Cc1cc(Cn2c(N3CCNCC3)nc3c(-c4ccnn4-c4ccc(C(C)(C)C)cc4)cc(Cl)cc32)cc(C)c1F` [Example 178, 4-(1-(4-(tert-butyl)phenyl)-1H-pyrazol-5-yl)-6-chloro-1-(4-fluoro-3,5-dimethylbenzyl)-2-(piperazin-1-yl)-1H-benzo[d]imidazole trifluoroacetate] the EC50 [1] was 5000 to 30000 nM and the Ki (Son of Sevenless (SOS)) was > 5000 nM.
`COC(=O)c1cnn(CCN(C)C)c1-c1cc(C)cc2c1nc(N1CCNCC1)n2Cc1ccc(F)c(Cl)c1` [Example 180, methyl 5-(1-(3-chloro-4-fluorobenzyl)-6-methyl-2-(piperazin-1-yl)-1H-benzo[d]imidazol-4-yl)-1-(2-(dimethylamino)ethyl)-1H-pyrazole-4-carboxylate] was tested, and the EC50 [1] was < 1000 nM and the Ki (Son of Sevenless (SOS)) was 1000 to 5000 nM.
For `Cc1cc(Cn2c(N3CCNCC3)nc3c(-c4ccccc4C#Cc4ccccc4)cc(Cl)cc32)cc(C)c1F` [Example 182, 6-chloro-1-(4-fluoro-3,5-dimethylbenzyl)-4-(2-(phenylethynyl)phenyl)-2-(piperazin-1-yl)-1H-benzo[d]imidazole trifluoroacetate], the EC50 [1] was 1000 to 5000 nM and the Ki (Son of Sevenless (SOS)) was > 5000 nM.
In the case of `Cc1cc(Cn2c(N3CCNCC3)nc3c(-c4ccccc4C#Cc4ccccc4Cl)cc(Cl)cc32)cc(C)c1F` [Example 183, 6-chloro-4-(2-((2-chlorophenyl)ethynyl)phenyl)-1-(4-fluoro-3,5-dimethylbenzyl)-2-(piperazin-1-yl)-1H-benzo[d]imidazole trifluoroacetate], the EC50 [1] is reported as 1000 to 5000 nM and the Ki (Son of Sevenless (SOS)) is reported as 500 to 1000 nM.
Compound `Cc1cc(Cn2c(N3CCNCC3)nc3c(-c4c(C)cccc4C#Cc4ccccc4Cl)cc(Cl)cc32)cc(C)c1F` [Example 184, 6-chloro-4-(2-((2-chlorophenyl)ethynyl)-6-methylphenyl)-1-(4-fluoro-3,5-dimethylbenzyl)-2-(piperazin-1-yl)-1H-benzo[d]imidazole trifluoroacetate] has an EC50 [1] of 1000 to 5000 nM and a Ki (Son of Sevenless (SOS)) of 500 to 1000 nM.
With `Cc1ccccc1C#Cc1ccccc1-c1cc(Cl)cc2c1nc(N1CCNCC1)n2Cc1cc(C)c(F)c(C)c1` [Example 185, 6-chloro-1-(4-fluoro-3,5-dimethylbenzyl)-2-(piperazin-1-yl)-4-(2-(o-tolylethynyl)phenyl)-1H-benzo[d]imidazole trifluoroacetate] the EC50 [1] was 5000 to 30000 nM and the Ki (Son of Sevenless (SOS)) was > 5000 nM.
For `Cc1cc(N2CCC(N)CC2)c2nc(N3CCNCC3)n(Cc3cc(C)c(F)c(C)c3)c2c1` [Example 188, 1-(1-(4-fluoro-3,5-dimethylbenzyl)-6-methyl-2-(piperazin-1-yl)-1H-benzo[d]imidazol-4-yl)piperidin-4-amine trifluoroacetate], the EC50 [1] was 1000 to 5000 nM and the Ki (Son of Sevenless (SOS)) was 500 to 1000 nM.
Work on `Cc1cc(N2CCC(CN)C2)c2nc(N3CCNCC3)n(Cc3cc(C)c(F)c(C)c3)c2c1` (stereo not drawn) [Example 189, (1-(1-(4-fluoro-3,5-dimethylbenzyl)-6-methyl-2-(piperazin-1-yl)-1H-benzo[d]imidazol-4-yl)pyrrolidin-3-yl)methanamine trifluoroacetate] yielded an EC50 [1] of 1000 to 5000 nM and a Ki (Son of Sevenless (SOS)) of 500 to 1000 nM.
In the case of `Cc1cc(N2CCNCC2)c2nc(N3CCNCC3)n(Cc3cc(C)c(F)c(C)c3)c2c1` [Example 190, 1-(4-fluoro-3,5-dimethylbenzyl)-6-methyl-2,4-di(piperazin-1-yl)-1H-benzo[d]imidazole trifluoroacetate], the EC50 [1] is reported as < 1000 nM and the Ki (Son of Sevenless (SOS)) is reported as 500 to 1000 nM.
`Cc1cc(N(C)CCN(C)C)c2nc(N3CCNCC3)n(Cc3cc(C)c(F)c(C)c3)c2c1` [Example 191, N^1-(1-(4-fluoro-3,5-dimethylbenzyl)-6-methyl-2-(piperazin-1-yl)-1H-benzo[d]imidazol-4-yl)-N^1,N^2,N^2-trimethylethane-1,2-diamine trifluoroacetate] was tested, and the EC50 [1] was 1000 to 5000 nM and the Ki (Son of Sevenless (SOS)) was 500 to 1000 nM.
With `CNCCN(C)c1cc(C)cc2c1nc(N1CCNCC1)n2Cc1cc(C)c(F)c(C)c1` [Example 192, N^1-(1-(4-fluoro-3,5-dimethylbenzyl)-6-methyl-2-(piperazin-1-yl)-1H-benzo[d]imidazol-4-yl)-N^1,N^2-dimethylethane-1,2-diamine trifluoroacetate] the EC50 [1] was 1000 to 5000 nM and the Ki (Son of Sevenless (SOS)) was 500 to 1000 nM.
`Cc1cc(NCCN2CCOCC2)c2nc(N3CCNCC3)n(Cc3cc(C)c(F)c(C)c3)c2c1` [Example 193, 1-(4-fluoro-3,5-dimethylbenzyl)-6-methyl-N-(2-morpholinoethyl)-2-(piperazin-1-yl)-1H-benzo[d]imidazol-4-amine trifluoroacetate] was tested, and the EC50 [1] was 1000 to 5000 nM and the Ki (Son of Sevenless (SOS)) was 500 to 1000 nM.
In the case of `COCCN1CCN(c2cc(C)cc3c2nc(N2CCNCC2)n3Cc2cc(C)c(F)c(C)c2)CC1` [Example 195, 1-(4-fluoro-3,5-dimethylbenzyl)-4-(4-(2-methoxyethyl)piperazin-1-yl)-6-methyl-2-(piperazin-1-yl)-1H-benzo[d]imidazole trifluoroacetate], the EC50 [1] is reported as 1000 to 5000 nM and the Ki (Son of Sevenless (SOS)) is reported as 500 to 1000 nM.
